Laboratory results from patent EP4707280A1, “1,4-CINEOLE DERIVATIVE AND INTERMEDIATE THEREOF, HERBICIDE CONTAINING SAID DERIVATIVE AS ACTIVE INGREDIENT, METHOD FOR USING HERBICIDE, AND METHOD FOR PREPARING AGROCHEMICAL COMPOSITION” (HOKKO CHEMICAL INDUSTRY CO., LTD., priority 2023, dated 2024).

Assays:
Lindernia pyxidaria = assay: Test Example 6: herbicidal effect test by application during growth period of paddy rice (low dose); type: in vivo; conditions: 7.5 g per 10 ares, applied seven days after sowing, flooded pots, 14 days after application, read-out: weed inhibition rate
Procedure, shortened: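 Paddy-soil pots, flooded ~3 cm after sowing weed seeds at 0-1 cm depth, greenhouse-grown. Seven days after sowing, diluted emulsifiable concentrate applied by dropper at 7.5 g active ingredient per 10 ares. Weed inhibition rate (%) scored 14 days after application, in duplicate.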

Chenopodium album = assay: Test Example 7: herbicidal effect test by soil application in upland field (low dose); type: in vivo; conditions: 7.5 g per 10 ares, sprayed one day after sowing, 14 days after application, read-out: weed inhibition rate
Procedure, shortened: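 Duplicate pots of alluvial loam, seeds incorporated in the surface 1 cm. Soil surface sprayed 1 d after sowing (EC in water, 100 L/10 a; 7.5 g a.i./10 a). Endpoint: % inhibition, day 14.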

## C=CCO[C@@H]1C[C@]2(C)O[C@@]1(C(C)C)C[C@H]2OCc1ccccc1F [1-930, (1S,2R,4R,5R)-2-[(2-fluorophenyl)methoxy]-1-methyl-4-isopropyl-5-prop-2-enoxy-7-oxabicyclo[2.2.1]heptane]
Lindernia pyxidaria
  inhibition at 75 g/ha: ≥ 80%
Chenopodium album
  inhibition at 75 g/ha: ≥ 80%

## C=C1C[C@]2(C)O[C@@]1(C(C)C)C[C@H]2OCc1ccccc1F [2-88, (1R,4S,5R)-5-((2-fluorobenzyl)oxy)-1-isopropyl-4-methyl-2-methylene-7-oxabicyclo[2.2.1]heptane]
Chenopodium album
  inhibition at 75 g/ha: ≥ 80%

## C=C1C[C@]2(C)O[C@@]1(C(C)C)C[C@H]2OCc1ccccc1C [2-72, (1R,4S,5R)-1-isopropyl-4-methyl-5-((2-methylbenzyl)oxy)-2-methylene-7-oxabicyclo[2.2.1]heptane]
Chenopodium album
  inhibition at 75 g/ha: ≥ 80%

## C#CCO[C@@H]1C[C@]2(C)O[C@@]1(C(C)C)C[C@H]2OCc1ccccc1F [1-931, (1S,2R,4R,5R)-2-[(2-fluorophenyl)methoxy]-1-methyl-4-isopropyl-5-prop-2-ynoxy-7-oxabicyclo[2.2.1]heptane]
Lindernia pyxidaria
  inhibition at 75 g/ha: ≥ 80%

## CC(C)[C@]12C[C@@H](OCc3ccccc3F)[C@](C)(CC1OCC1CC1)O2 (mixture of isomers) [1-921, (1S,2R,4R,SR)-5-(cyclopropylmethoxy)-2-[(2-fluorophenyl)methoxy]-1-methyl-4-isopropyl-7-oxabicyclo[2.2.1]heptane]
Lindernia pyxidaria
  inhibition at 75 g/ha: ≥ 80%
Chenopodium album
  inhibition at 75 g/ha: ≥ 80%

## CC(C)[C@]12C[C@@H](OCc3c(F)cccc3F)[C@](C)(C[C@@H]1F)O2 [1-7, (1S,2R,4R,5S)-2-((2,6-difluorobenzyl)oxy)-5-fluoro-4-isopropyl-1-methyl-7-oxabicyclo[2.2.1]heptane]
Chenopodium album
  inhibition at 75 g/ha: ≥ 80%

## CC(C)[C@]12C[C@@H](OCc3c(F)cccc3F)[C@](C)(CC1=O)O2 [2-20, (1R,4S,5R)-5-((2,6-difluorobenzyl)oxy)-1-isopropyl-4-methyl-7-oxabicyclo[2.2.1]heptan-2-one]
Lindernia pyxidaria
  inhibition at 75 g/ha: ≥ 80%
